Reference: the supplement of paper PMC7695840
pIC50: −log10 of the molar value. Where “and” joins values, the source holds several entries; their conditions need not be identical. Identical values can stand only once. Counter-ions that a name gives are not always drawn.

Assays:
[1] = system: Staphylococcus aureus MW2 (mecA+); assay: IC50 (growth, competition assay); conditions: cefoxitin: subinhibitory
In short: (§1)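 Per plate, DsRed (540/590) and GFP (485/520) readings were normalized between the medians of the single-strain controls, after which No Treatment was fixed at 0.5. These readings came from a 1:1 mix of pre-induced fluorescent S. aureus MW2 strains with and without the resistance gene, grown for 20 h at 37 °C and 90% humidity, unshaken, in LB with a daily-set subinhibitory drug dose in 1536-well plates. Per-strain IC50 meant the dose halving the No Treatment signal, or the maximal signal.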

[2] = system: Staphylococcus aureus MW2 delta-mecA (mecA-); assay: IC50 (growth, competition assay); conditions: cefoxitin: subinhibitory
In short: as §1

Row | Compound | pIC50 ([1]; fluorescent label: DsRed) | pIC50 ([1]; fluorescent label: GFP) | pIC50 ([2]; fluorescent label: DsRed) | pIC50 ([2]; fluorescent label: GFP)
1 | CCn1cc(C(=O)O)c(=O)c2cc(F)c(N3CCNC(C)C3)c(F)c21 (stereo not drawn) [Lomefloxacin hydrochloride] | > 5.01 | > 5.01 | > 5.01 | > 5.01
2 | CCOC(=O)[C@H](CCc1ccccc1)N[C@@H](C)C(=O)N1Cc2ccccc2C[C@H]1C(=O)O [ACCUPRIL] | < 3.82 | < 3.82 | < 3.82 | < 3.82
3 | COc1ccnc2[nH]cc(C(=O)C(=O)N3CCN(C(=O)c4ccccc4)C[C@H]3C)c12 | < 3.82 | < 3.82 | < 3.82 | < 3.82
4 | OC(c1cc(C(F)(F)F)nc2c(C(F)(F)F)cccc12)C1CCCCN1 (stereo not drawn) [LARIAM] | > 5.01 | > 5.01 | > 5.01 | > 5.01
5 | CC1(C)S[C@@H]2[C@H](NC(=O)[C@H](N)c3ccc(O)cc3)C(=O)N2[C@H]1C(=O)O [Amoxicillin sodium (Amox)] | > 5.01 | 4.82 | > 5.01 | > 5.01
6 | C=C(CC)C(=O)c1ccc(OCC(=O)O)c(Cl)c1Cl [EDECRIN] | 4.47 | 4.44 | > 5.01 | > 5.01
7 | O=C(CCCCCN1CCN(c2ccccc2-c2ccccc2)CC1)NC1CCCc2ccccc21 (stereo not drawn) [LP 12 hydrochloride hydrate] | 4.76 | 4.63 | > 5.01 | > 5.01
8 | CN1CCN(CCCN2c3ccccc3Sc3ccc(C(F)(F)F)cc32)CC1 [STELAZINE] | 4.26 | 4.25 | 4.74 | 4.80
9 | CC[C@@H](C(=O)[C@@H](C)[C@@H](O)[C@H](C)[C@@H]1O[C@@H]([C@@H](CC)C(=O)O)CC[C@@H]1C)[C@H]1O[C@]2(C=C[C@@H](O)[C@]3(CC[C@@](C)([C@H]4CC[C@](O)(CC)[C@H](C)O4)O3)O2)[C@H](C)C[C@@H]1C [KOKCISAN] | 4.50 | > 5.01 | > 5.01 | 4.49
10 | CC[C@H]1OC(=O)[C@H](C)[C@@H](O[C@H]2C[C@@](C)(OC)[C@@H](O)[C@H](C)O2)[C@H](C)[C@@H](O[C@@H]2O[C@H](C)C[C@H](N(C)C)[C@H]2O)[C@](C)(OC)C[C@@H](C)C(=O)[C@H](C)[C@@H](O)[C@]1(C)O [BIAXIN] | > 5.01 | > 5.01 | > 5.01 | > 5.01
11 | COC(=O)c1c(OC)cc2c(c1C)Oc1c(Cl)c(O)c(Cl)c(C)c1C(=O)O2 [GANGALEOIDIN] | > 5.01 | 4.20 | 4.42 | > 5.01
12 | N=C(NCCCCCCNC(=N)NC(=N)Nc1ccc(Cl)cc1)NC(=N)Nc1ccc(Cl)cc1 [LISIUM] | > 5.01 | > 5.01 | > 5.01 | > 5.01
13 | CC1COc2c(N3CCN(C)CC3)c(F)cc3c(=O)c(C(=O)O)cn1c23 (stereo not drawn) [Ofloxacin] | > 5.01 | > 5.01 | > 5.01 | > 5.01
14 | OC1(c2ccc(Cl)c(C(F)(F)F)c2)CCN(CCCC(c2ccc(F)cc2)c2ccc(F)cc2)CC1 [SEMAP] | 4.53 | 4.56 | > 5.01 | > 5.01
15 | O=C(NC[C@H]1CN(c2ccc(N3CCOCC3=O)cc2)C(=O)O1)c1ccc(Cl)s1 [XARELTO] | > 5.01 | > 5.01 | > 5.01 | > 5.01
16 | C=C[C@](C)(O)CC[C@@H]1[C@@]2(C)CCCC(C)(C)[C@@H]2CC[C@@]1(C)O [Sclareol] | 4.00 | 4.19 | 4.60 | 4.71
17 | CCC(Cc1c(I)cc(I)c(N)c1I)C(=O)O (stereo not drawn) [TELEPAQUE] | 4.98 | 4.56 | > 5.01 | > 5.01
18 | COc1ccc(Cc2cnc(N)nc2N)cc1OC [DIAVERIDINE] | 4.24 | 4.52 | 4.56 | 4.57
19 | CC1(C)S[C@@H]2[C@H](NC(=O)[C@H](NC(=O)N3CCNC3=O)c3ccccc3)C(=O)N2[C@H]1C(=O)O [AZLIN] | 4.49 | 4.33 | > 5.01 | > 5.01

Row | Compound | pIC50 ([1]; fluorescent label: DsRed) | pIC50 ([1]; fluorescent label: GFP) | pIC50 ([2]; fluorescent label: DsRed) | pIC50 ([2]; fluorescent label: GFP)
20 | CC(=O)OCC1=C(C(=O)O)N2C(=O)[C@@H](NC(=O)Cc3cccs3)[C@H]2SC1 [KEFLIN] | > 5.01 | > 5.01 | > 5.01 | > 5.01
21 | Cc1onc(-c2c(Cl)cccc2Cl)c1C(=O)N[C@@H]1C(=O)N2[C@@H]1SC(C)(C)[C@@H]2C(=O)O [Dicloxacillin Sodium] | > 5.01 | > 5.01 | > 5.01 | > 5.01
22 | CCN1CCN(C(=O)N[C@@H](C(=O)N[C@@H]2C(=O)N3C(C(=O)O)=C(CSc4nnnn4C)CS[C@H]23)c2ccc(O)cc2)C(=O)C1=O [CEFOBID] | 4.71 | 4.61 | > 5.01 | > 5.01
23 | CC(=O)NC[C@H]1CN(c2ccc(N3CCOCC3)c(F)c2)C(=O)O1 [Linezolid] | > 5.01 | > 5.01 | > 5.01 | > 5.01
24 | CCOc1nc2cccc(C(=O)OC(C)OC(=O)OC3CCCCC3)c2n1Cc1ccc(-c2ccccc2-c2nn[nH]n2)cc1 (stereo not drawn) [ATACAND] | 5.00 | 4.83 | > 5.01 | > 5.01
25 | CC(C)(O)CC(=O)NCCn1ccc2ncnc(Nc3ccc(Oc4cccc(C(F)(F)F)c4)c(Cl)c3)c21 [TAK-285] | 4.58 | 4.55 | > 5.01 | > 5.01
26 | C[C@H]1O[C@@H](n2cc(F)c(=O)[nH]c2=O)[C@H](O)[C@@H]1O [Doxifluridine] | 5.41 | 4.96 | 6.18 | > 6.30
27 | Cn1nnnc1SCC1=C(C(=O)O)N2C(=O)[C@@H](NC(=O)[C@H](OC=O)c3ccccc3)[C@H]2SC1 [MANDOL] | 4.67 | 4.65 | > 5.01 | > 5.01
28 | O=C(N[C@@H](Cc1ccccc1)C(=O)CCl)OCc1ccccc1 [Z-L-Phe chloromethyl ketone] | > 5.01 | > 5.01 | > 5.01 | > 5.01
29 | C[C@@H]1CN(c2c(F)c(N)c3c(=O)c(C(=O)O)cn(C4CC4)c3c2F)C[C@H](C)N1 [Sparfloxacin] | 6.11 | 6.13 | > 6.30 | > 6.30
30 | NCC(=O)Nc1ccc(-n2nc(C(F)(F)F)cc2-c2ccc3c(ccc4ccccc43)c2)cc1 | 4.67 and 4.68 | 4.53 and 4.83 | 5.05 and 4.84 | 5.46 and 4.83
31 | O=c1[nH]c(=O)n([C@H]2C[C@H](O)[C@@H](CO)O2)cc1F [Floxuridine] | > 6.30 | > 6.30 | > 6.30 | > 6.30
32 | CN(C(=O)CN(CCO)CC(=O)N(C)C(C)(C)Cc1ccccc1)C(C)(C)Cc1ccccc1 [OXETHAZAINE] | 3.99 | 3.95 | 4.40 | 4.52
33 | Cc1cc(F)c(Nc2ncnc3cc(OCc4ccccc4)ccc23)cc1O | < 3.82 | 3.86 | 3.86 | < 3.82
34 | Cc1cc(OCCCS(C)(=O)=O)cc(C)c1-c1cccc(COc2ccc3c(c2)OC[C@H]3CC(=O)O)c1 [TAK-875] | > 5.01 and 4.65 | 4.83 and 4.53 | > 5.01 | > 5.01 and 4.91
35 | Oc1c(Cl)cc(Cl)c2cccnc12 [CAPITROL] | 4.75 | 4.52 | > 5.01 | > 5.01
36 | CO[C@@]1(NC(=O)C(C(=O)O)c2ccc(O)cc2)C(=O)N2C(C(=O)O)=C(CSc3nnnn3C)CO[C@@H]21 (stereo partly drawn) [MOXAM] | 4.58 | 4.73 | > 5.01 | > 5.01
37 | N[C@@H](Cc1cc(I)c(Oc2cc(I)c(O)c(I)c2)c(I)c1)C(=O)O [L-Thyroxine] | > 5.01 | > 5.01 | > 5.01 | > 5.01
38 | CC(C)c1c(C(=O)Nc2ccccc2)c(-c2ccccc2)c(-c2ccc(F)cc2)n1CC[C@@H](O)C[C@@H](O)CC(=O)O [Atorvastatin calcium (Lipitor)] | 4.04 and 4.12 | 4.14 and 4.20 | 4.54 and 4.61 | 4.52 and 4.59

Row | Compound | pIC50 ([1]; fluorescent label: DsRed) | pIC50 ([1]; fluorescent label: GFP) | pIC50 ([2]; fluorescent label: DsRed) | pIC50 ([2]; fluorescent label: GFP)
39 | COC(=O)/C(C)=C\C[C@@]12OC(C)(C)[C@@H]3C[C@@H](C=C4C(=O)c5c(O)c6c(c(CC=C(C)C)c5O[C@]431)O[C@](C)(CCC=C(C)C)C=C6)C2=O [METHYL GAMBOGATE] | 4.25 | 4.18 | 4.89 | 4.64
40 | O=C1Nc2ccc(I)cc2/C1=C/c1cc(Br)c(O)c(Br)c1 [GW5074] | > 5.01 | > 5.01 | > 5.01 | > 5.01
41 | CC[C@@]1([C@H]2O[C@H]([C@H]3O[C@@](O)(CO)[C@H](C)C[C@@H]3C)C[C@H]2C)CC[C@H]([C@@]2(C)CC[C@]3(C[C@H](O)[C@@H](C)[C@@H]([C@H](C)[C@H](OC)[C@@H](C)C(=O)O)O3)O2)O1 [RUMENSIN] | > 5.01 | > 5.01 | > 5.01 | 4.90
42 | CCOC(=O)c1ccc(N2NC(=O)C(=Cc3ccc([N+](=O)[O-])o3)C2=O)cc1 [PYR-41] | 4.23 | 4.10 | 4.62 | 4.72
43 | O=C(Nc1cccc(C(F)(F)F)c1)Nc1cc(S(=O)(=O)NC2CC2)ccc1-c1ccsc1 [AGI-6780] | 4.47 | 4.43 | 4.73 | 4.94
44 | CC1=C(O)C(=O)C=C2C1=CC=C1[C@@]2(C)CC[C@@]2(C)[C@@H]3C[C@](C)(C(=O)O)CC[C@]3(C)CC[C@]12C [CELASTROL] | > 5.01 | > 5.01 | > 5.01 | > 5.01
45 | CC(C)=CCCC1(C)C=Cc2c(O)c3c(c(CC=C(C)C)c2O1)OC12C(=CCCC1C(C)(C)O[C@@]2(C/C=C(\C)C(=O)O)C(=O)O)C3=O (stereo partly drawn) [GARCINOLIC ACID] | > 5.01 | 4.83 | > 5.01 | > 5.01
46 | Cc1cc(SCc2sc(-c3ccc(C(F)(F)F)c(F)c3)nc2C)ccc1OCC(=O)O [GW0742] | 4.93 | 4.82 | > 5.01 | > 5.01
47 | Cc1ccc(S(=O)(=O)c2ccc([N+](=O)[O-])o2)cc1 | > 5.01 | > 5.01 | > 5.01 | > 5.01
48 | O=C1OCCN1/N=C/c1ccc([N+](=O)[O-])o1 [FUROXONE] | > 5.01 | > 5.01 | > 5.01 | > 5.01
49 | CN1CCN(CCCN2c3ccccc3Sc3ccc(C(F)(F)F)cc32)CC1 [Trifluoperazine dihydrochloride] | 4.29 | 4.28 | 4.80 | 4.78
50 | CC(=O)[C@H]1CC[C@H]2[C@@H]3CC=C4C[C@@H](OC(=O)CCC(=O)O)CC[C@]4(C)[C@H]3CC[C@]12C [FORMULA-405] | 4.74 | 4.46 | 4.74 | 4.75
51 | Cc1ccc(S(=O)(=O)N[C@@H](Cc2ccccc2)C(=O)CCl)cc1 [N-p-Tosyl-L-phenylalanine chloromethyl ketone] | > 5.01 | > 5.01 | > 5.01 | > 5.01
52 | C=CCCCCCCCCCCCc1ccco1 [AVOCADENOFURAN] | 4.31 | 4.09 | 4.79 | > 5.01
53 | COc1cc(/C=C/C(=O)CC(=O)/C=C/c2ccc(O)c(OC)c2)ccc1O [CURCUMIN] | 4.57 | 4.30 | > 5.01 | > 5.01
54 | C=C[C@]1(C)C[C@@H](OC(=O)CS[C@@H]2C[C@H]3CC[C@@H](C2)N3C)[C@]2(C)[C@H](C)CC[C@]3(CCC(=O)[C@H]32)[C@@H](C)[C@@H]1O [Retapamulin] | > 5.01 | > 5.01 | > 5.01 | > 5.01
55 | CCCCCCCCc1ccc(CCC(N)(CO)CO)cc1 [Fingolimod (FTY720)] | 4.82 and 4.83 | 4.73 and 4.83 | 4.93 and > 5.01 | 4.97 and > 5.01
56 | CSc1ccc2c(c1)N(CCC1CCCCN1C)c1ccccc1S2 (stereo not drawn) [MELLARIL] | 4.17 | 4.06 | 4.72 | 4.86
57 | CCCCCC(=O)Cc1cc(O)cc(O)c1C(=O)Oc1cc(CC(=O)CCCCC)c(C(=O)O)c(OC)c1 [ARTHONIOIC ACID] | 4.62 | 4.25 | 4.34 | 4.30
